The source of these data is patent US9862693B2, “Compounds and methods of treating cancer” (The Regents of the University of California, priority 2012, dated 2018).

What all share (format): cell-based
One experiment relates to HCC1806. Description: MTS cell number assay (CellTiter 96), TNBC cells. As to conditions: 1 mM, 72 hours, MTS method. Here is the method: (§1) FIGS. 2A-2D. Metformin analogues inhibit growth/survival of triple negative breast cancer cells. MDA-MB-231 (FIG. 2A), HCC38 (FIG. 2B), HCC1937 (FIG. 2C) and HCC1806 (FIG. 2D) cells were cultured in medium containing 1% fetal bovine serum and increasing concentrations of metformin and analogues JD001-JD009 (0.1, 1 and 5 mM). After 3 days, MTS assay was performed. The percentage of surviving cells relative to controls, defined as 100% survival, was determined by the MTS assay.
(§2) Cells were incubated in the presence of vehicle, metformin or metformin analogues for 72 hours in their respective media. After treatment cell numbers were determined with the MTS method using the CellTiter 96 Aqueous Non-Radioactive Cell Proliferation Assay (Promega). Numbers express percentage of vehicle treated controls at 1 mM concentration metformin or metformin analogues (JD001-JD009). TNBC: Triple Negative Breast Cancer Cells, ER+BC: Estrogen receptor positive breast cancer.
A general note: Tetrazolium assays rely on reduction of a dye to a coloured formazan, in cell work by metabolically active cells.

A further experiment has as its system HCC1937. Briefly: MTS cell number assay (CellTiter 96), TNBC cells. The following applies: 1 mM, 72 hours, MTS method. Here is the method: as §1, §2
Another experiment has as its system HCC38. Briefly: MTS cell number assay (CellTiter 96), TNBC cells. As to conditions: 1 mM, 72 hours, MTS method. Here is the method:
as §1, §2

The next experiment has as its system MDA-MB-231. Briefly: MTS cell number assay (CellTiter 96), TNBC cells. As to conditions: Homo sapiens, 1 mM, 72 hours, MTS method, read-out: Biodata TNBC MDA-MB-231, cell numbers as percentage of vehicle treated controls. The method, then:
as §1, §2

The next experiment concerns MCF7. Briefly: MTS cell number assay (CellTiter 96), ER+ breast cancer cells. As to conditions: Homo sapiens, 1 mM, 72 hours, MTS method, read-out: ER+ BC MCF7, cell numbers as percentage of vehicle treated controls. Here is the method:
FIG. 1. Metformin analogues inhibit growth/survival of ER+ MCF7 breast cancer cells. MCF7 cells were cultured in medium containing different concentrations of metformin and analogues (0.1, 1 and 5 mM). After 3 days, the percentage of surviving cells relative to controls, defined as 100% survival, was determined by the MTS assay. Data represents three independent experiments.
Compounds described herein (e.g. metformin derivatives and/or analogues) were tested in human MCF-7 breast cancer cells, a standard ERalpha-positive model of breast malignancy (FIG. 1), and in four different cell lines classified as TNBC, including MDA-MB-231, HCC1937, HCC38 and HCC1806 (FIGS. 2A-2D). […] Experiments were also performed in: 1) a non-small cell lung cancer cell line that is known to be resistant to standard chemotherapy (A549); and 2) a melanoma-like cell model (MDA-MB-435). To find if analogues have effects on normal cells compounds were tested in two different types of cells, human umbilical vein endothelial cells (HUVEC) and human mammary epithelial cells (HMEC). The effects of metformin (MET) were compared with compounds JD001-JD009.
as §2

In the next experiment the test system is HMEC. Description: MTS cell number assay (CellTiter 96), normal cells. The following applies: Homo sapiens, 1 mM, 72 hours, MTS method, read-out: Biodata Normal HMEC, cell numbers as percentage of vehicle treated controls. Here is the method:
(§3) FIGS. 4A-4B. Effects of metformin and metformin analogues on normal cells. HMEC (FIG. 4A) and HUVEC (FIG. 4B) cells were plated in special media. After 24 hours, cells were treated with increasing concentrations of metformin and analogues JD001-JD009 (0.1, 1 and 5 mM). After 3 days, MTS assay was performed. Survival is expressed as percentage of vehicle treated control. Data represents at least two experiments.
(§4) The effects of compounds described herein (including embodiments) (e.g. metformin analogues) were determined on two types of normal nonmalignant human cells, human umbilical vein endothelial cells (HUVEC) and human mammary epithelial cells (HMEC). There were no significant biologic effects noted on exposure to the metformin analogues.
as §2

A further experiment relates to HUVEC. Briefly: MTS cell number assay (CellTiter 96), normal cells. The following applies: Homo sapiens, 1 mM, 72 hours, MTS method, read-out: Biodata Normal HUVEC, cell numbers as percentage of vehicle treated controls. The method, then: as §3, §4, §2
A further experiment has as its system A549. Briefly: MTS cell number assay (CellTiter 96), NSCLC cells. As to conditions: Homo sapiens, 1 mM, 72 hours, MTS method, read-out: Biodata extra A549, cell numbers as percentage of vehicle treated controls. Here is the method: (§5) FIGS. 3A-3B. Metformin analogues inhibit survival of non-small cell lung cancer (NSCLC) (FIG. 3A) and melanoma cell lines (FIG. 3B). A549 (NSCLC) and MDA-MB-435 (melanoma) cells were cultured in medium containing 1% fetal bovine serum and increasing concentrations of metformin (MET) and analogues JD001-JD007 (0.1, 1 and 5 mM). After 3 days, MTS assay was performed. Survival is expressed as percentage of control defined at 100%.
as §2

The subject of the next experiment is MDA-MB-435. Description: MTS cell number assay (CellTiter 96), melanoma cells. The following applies: 1 mM, 72 hours, MTS method. The method, then: as §5, §2

Counter-ions that a name gives are not always drawn.

For `CON(C)C(=N)NC(=N)N` [JD001, N-Methoxyl-N-methylbiguanide hydrochloride], the “Biodata TNBC HCC1806, cell numbers as percentage of vehicle treated controls” value in the experiment on HCC1806 is reported as 80.1 percentage of vehicle treated controls. Also, the “Biodata TNBC HCC1937, cell numbers as percentage of vehicle treated controls” value in the experiment on HCC1937 is 68.9 percentage of vehicle treated controls. The “Biodata TNBC HCC38, cell numbers as percentage of vehicle treated controls” value in the experiment with HCC38 is listed as 102.5 percentage of vehicle treated controls. Moreover, the viability at 1000 µM with MDA-MB-231 turned out to be 92%; in the experiment with MCF7, 82.3%; in the experiment on HMEC it was 101%; in the experiment on HUVEC, 84.4%; in the experiment on A549, 62.6%. For the same compound, in the experiment on MDA-MB-435, the “Biodata extra MDA-MB-435, cell numbers as percentage of vehicle treated controls” value is given as 102.1 percentage of vehicle treated controls.

Turning to `N=C(NC(=N)N1CCCCC1)N1CCCCC1` [JD002, N-(Imino(piperidin-1-yl)methyl)piperidine-1-carboximidamide hydrochloride], the “Biodata TNBC HCC1806, cell numbers as percentage of vehicle treated controls” value in the experiment on HCC1806 is given as 36.4 percentage of vehicle treated controls. Further, in the experiment on HCC1937, the “Biodata TNBC HCC1937, cell numbers as percentage of vehicle treated controls” value is on record as 17.1 percentage of vehicle treated controls. The “Biodata TNBC HCC38, cell numbers as percentage of vehicle treated controls” value with HCC38 is 44.7 percentage of vehicle treated controls. The viability at 1000 µM came out at 48.5% in the experiment with MDA-MB-231; 46.2% with MCF7; 62.6% in the experiment on HMEC; 70% in the experiment on HUVEC; 4.6% with A549. Also, in the experiment with MDA-MB-435, the “Biodata extra MDA-MB-435, cell numbers as percentage of vehicle treated controls” value is listed as 39.8 percentage of vehicle treated controls.

With `N=C(NC(=N)N1CCCC1)N1CCCCC1` [JD005, N-(Imino(pyrrolidin-1-yl)methyl)piperidine-1-carboximidamide hydrochloride], the “Biodata TNBC HCC1806, cell numbers as percentage of vehicle treated controls” value with HCC1806 is 55.8 percentage of vehicle treated controls. The “Biodata TNBC HCC1937, cell numbers as percentage of vehicle treated controls” value with HCC1937 is on record as 15.7 percentage of vehicle treated controls. Also, the “Biodata TNBC HCC38, cell numbers as percentage of vehicle treated controls” value with HCC38 is on record as 43.4 percentage of vehicle treated controls. Also, the viability at 1000 µM was 46.6% with MDA-MB-231; 58.2% in the experiment on MCF7; 67.6% with HMEC; 54.6% in the experiment with HUVEC; 32.4% with A549. Further, in the experiment with MDA-MB-435, the “Biodata extra MDA-MB-435, cell numbers as percentage of vehicle treated controls” value is 42.2 percentage of vehicle treated controls.

Regarding `N=C(NC(=N)N1CCCC1)N1CCCC1` [JD006, N-(Imino(pyrrolidin-1-yl)methyl)pyrrolidine-1-carboximidamide hydrochloride], the viability at 1000 µM in the experiment on MCF7 worked out at 59.7%; with HMEC, 96.6%; in the experiment on HUVEC, 113%; in the experiment on A549, 59.7%.

Turning to `CN(C)C(=N)NC(=N)N1CCOCC1` [JD007, N—(N,N-Dimethylcarbamimidoyl)morpholine-4-carboximidamide hydrochloride], the “Biodata TNBC HCC1806, cell numbers as percentage of vehicle treated controls” value with HCC1806 is given as 65.7 percentage of vehicle treated controls. In the experiment on HCC38, the “Biodata TNBC HCC38, cell numbers as percentage of vehicle treated controls” value is 83.6 percentage of vehicle treated controls. The viability at 1000 µM in the experiment with MDA-MB-231 stood at 64.3%; in the experiment with MCF7, 65.8%; in the experiment with HMEC, 105%; in the experiment on HUVEC, 112%; with A549, 82.3%.

Regarding `CCCN(C)C(=N)NC(=N)N` [JD008, N-Methyl-N-propylbiguanide hydrochloride], the “Biodata TNBC HCC1806, cell numbers as percentage of vehicle treated controls” value in the experiment with HCC1806 is reported as 52.7 percentage of vehicle treated controls. Further, in the experiment with HCC38, the “Biodata TNBC HCC38, cell numbers as percentage of vehicle treated controls” value is given as 55.6 percentage of vehicle treated controls. Also, the viability at 1000 µM came out at 38.6% with MDA-MB-231, 52.2% in the experiment on MCF7, 70.9% in the experiment on HMEC and 37.7% in the experiment with HUVEC.

For the compound `CC1CCN(C(=N)NC(=N)N)CC1` [JD009, N-Carbamimidoyl-4-methylpiperidine-1-carboximidamide, hydrochloride], the “Biodata TNBC HCC1806, cell numbers as percentage of vehicle treated controls” value in the experiment on HCC1806 is 7.3 percentage of vehicle treated controls. For the same compound, the “Biodata TNBC HCC38, cell numbers as percentage of vehicle treated controls” value in the experiment with HCC38 is reported as 0 percentage of vehicle treated controls. Moreover, the viability at 1000 µM in the experiment on MDA-MB-231 is 0.3%; with MCF7, 52.7%; in the experiment on HMEC, 48.8%; with HUVEC, 39.5%.
